Results from patent US6344484B1, “Tyrosine alkoxyguanidines as integrin inhibitors” (3-Dimensional Pharmaceuticals, Inc., priority 1999, dated 2002).
Structures can show the parent of a compound that is named as a salt. Where two headings read alike, the source gives them in different places.

Experiments:
human GPIIbIIIa = target: T1, human GPIIbIIIa (Homo sapiens, UniProt P05106+P08514); experiment: Fibrinogen-IIb-IIIa assay (ELISA, inhibition of fibrinogen-GPIIbIIIa interaction); type: binding; conditions: mean of three replicate determinations; FIG. 1
T1 construct: purchased Enzyme Research Laboratories
Method: Fibrinogen-IIb-IIIa assay
The assay is based on the method of Dennis (Dennis, M. S., et al, Proteins 15: 312-321 (1993)). Costar 9018 flat-bottom 96-well ELISA plates were coated overnight at 4° C. with 100 μL/well of 10 μg/mL human fibrinogen (Calbiochem 341578) in 20 mM Tris-HCl pH 7.5, 150 mM NaCl, 2 mM CaCl2, 0.02% NaN3 (TAC buffer), and blocked for 1 hr at 37° C. with 150 μL/well of TAC buffer containing 0.05% Tween 20 and 1% bovine serum albumin (TACTB buffer). After washing 3 times with 200 μL/well of 10 mM Na2HPO4 pH 7.5, 150 mM NaCl, 0.01% Tween 20 (PBST buffer), controls or test compound (0.036-18.2 μM) were mixed with 40 μg/mL human GPIIbIIIa (Enzyme Research Laboratories) in TACTB buffer, and 100 μL/well of these solutions were incubated for 2 hr at 37° C. The plate was then washed 3 times with PBST buffer, and 100 μL/well of a monoclonal anti-GPIIbIIIa antibody in TACTB buffer (1 μg/mL, Enzyme Research Laboratories MabGP2b3a) was incubated at 37° C. for 1 hr. […] The reaction was stopped with 50 μL/well of 2M H2SO4, and the absorbence at 492 nm was recorded. Percent (%) inhibition was calculated from the average of three separate determinations relative to buffer controls (no test compound added), and a four parameter fit (Marquardt, D. W., J. Soc. Indust. Appl. Math. 11:431-441 (1963)) was used to estimate the half maximal inhibition concentration (IC50).

human αvβ3 = target: T2, human αvβ3 (Homo sapiens, UniProt P05106+P06756); experiment: αvβ3-vitronectin assay (ELISA, inhibition of αvβ3-vitronectin interaction); type: binding
T2 construct: purchased Chemicon CC10118
Method: The assay was based on the method of Niiya (Niiya, K., et al., Blood 70:475-483 (1987)). Costar 9018 flat-bottom 96-well ELISA plates were coated overnight at 4° C. with 100 μL/well of 0.4 μg/mL human αvβ3 (Chemicon CC10118) in TS buffer (20 mM Tris-HCl pH 7.5, 150 mM NaCl, 1 mM CaCl2, 1 mM MgCl2, 1 mM MnCl2). All subsequent steps were performed at room temperature. Plates were blocked for 2 hr with 200 μL/well of TS buffer containing 1% BSA (TSB buffer), and washed 5 times with 200 μL/well of TS buffer. Controls or test compound (0.44-455 nM) were mixed with 1 μg/mL of human vitronectin (Chemicon CC1019) that had been biotinylated in-house with sulfo-NHS-LC-LC-biotin (Pierce 21338, 20:1 molar ratio), and 100 μL/well of these solutions (in TSB buffer) were incubated for 2 hr. The plate was then washed 5 times with TS buffer, and 100 μL/well of 1 μ/mL NeutrAvidin-horseradish peroxidase conjugate (Pierce 31001) in TSB buffer was incubated for 1 hr. Following a 5-fold TS buffer wash, the plate was developed and results were calculated as described for the fibrinogen-IIbIIIa assay.

[1] = Table I, read-out: αvβ3 IC50 (nM), inhibition of the αvβ3-vitronectin interaction

T2 sequence (P06756 31-889 limits assumed): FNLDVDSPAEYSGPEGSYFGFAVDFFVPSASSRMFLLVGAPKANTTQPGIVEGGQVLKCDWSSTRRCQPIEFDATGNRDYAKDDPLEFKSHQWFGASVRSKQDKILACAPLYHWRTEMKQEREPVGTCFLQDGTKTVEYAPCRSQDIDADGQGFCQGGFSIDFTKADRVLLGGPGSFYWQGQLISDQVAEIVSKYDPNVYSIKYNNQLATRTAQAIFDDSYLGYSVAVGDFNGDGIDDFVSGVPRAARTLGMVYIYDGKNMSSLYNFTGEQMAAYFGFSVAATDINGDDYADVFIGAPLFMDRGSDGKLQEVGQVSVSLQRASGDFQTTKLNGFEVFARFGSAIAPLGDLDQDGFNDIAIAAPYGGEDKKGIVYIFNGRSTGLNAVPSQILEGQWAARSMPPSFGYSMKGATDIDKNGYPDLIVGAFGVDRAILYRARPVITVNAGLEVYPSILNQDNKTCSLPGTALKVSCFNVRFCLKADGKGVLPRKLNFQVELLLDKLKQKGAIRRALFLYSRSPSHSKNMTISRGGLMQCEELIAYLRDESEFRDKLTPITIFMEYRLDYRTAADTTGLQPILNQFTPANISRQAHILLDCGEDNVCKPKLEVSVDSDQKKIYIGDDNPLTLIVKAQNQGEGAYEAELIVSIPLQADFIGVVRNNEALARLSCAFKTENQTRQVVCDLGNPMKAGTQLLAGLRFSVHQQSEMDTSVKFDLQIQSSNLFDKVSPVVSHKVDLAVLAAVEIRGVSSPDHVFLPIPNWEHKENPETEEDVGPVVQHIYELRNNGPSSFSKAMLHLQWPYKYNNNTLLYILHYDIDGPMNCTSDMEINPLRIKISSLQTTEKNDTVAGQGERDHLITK
T2 sequence (P06756 891-1048 partner limits assumed): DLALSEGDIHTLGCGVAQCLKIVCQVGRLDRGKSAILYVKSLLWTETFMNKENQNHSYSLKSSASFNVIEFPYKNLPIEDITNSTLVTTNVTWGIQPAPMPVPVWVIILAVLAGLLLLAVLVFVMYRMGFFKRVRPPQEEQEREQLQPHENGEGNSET
T2 sequence (P05106 27-788): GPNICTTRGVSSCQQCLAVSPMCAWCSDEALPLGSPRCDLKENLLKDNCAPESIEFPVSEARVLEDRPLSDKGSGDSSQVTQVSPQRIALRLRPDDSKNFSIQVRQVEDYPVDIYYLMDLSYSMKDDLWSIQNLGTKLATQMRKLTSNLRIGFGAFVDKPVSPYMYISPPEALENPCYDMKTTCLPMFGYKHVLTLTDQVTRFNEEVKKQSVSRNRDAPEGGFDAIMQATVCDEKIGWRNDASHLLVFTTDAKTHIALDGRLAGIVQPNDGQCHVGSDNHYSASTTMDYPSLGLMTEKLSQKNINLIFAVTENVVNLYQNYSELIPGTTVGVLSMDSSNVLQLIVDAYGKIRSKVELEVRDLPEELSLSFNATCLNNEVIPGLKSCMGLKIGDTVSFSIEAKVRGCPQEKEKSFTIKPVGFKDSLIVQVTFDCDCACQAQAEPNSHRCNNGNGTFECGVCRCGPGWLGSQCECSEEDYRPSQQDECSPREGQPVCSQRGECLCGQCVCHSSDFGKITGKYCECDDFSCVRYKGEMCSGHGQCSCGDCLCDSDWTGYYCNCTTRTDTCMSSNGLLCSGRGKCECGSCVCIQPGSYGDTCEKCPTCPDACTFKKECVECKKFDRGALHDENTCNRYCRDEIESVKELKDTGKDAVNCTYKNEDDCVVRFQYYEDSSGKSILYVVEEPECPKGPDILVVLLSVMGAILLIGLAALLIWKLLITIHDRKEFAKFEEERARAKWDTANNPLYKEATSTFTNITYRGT
T1 sequence (P08514 32-887 limits assumed): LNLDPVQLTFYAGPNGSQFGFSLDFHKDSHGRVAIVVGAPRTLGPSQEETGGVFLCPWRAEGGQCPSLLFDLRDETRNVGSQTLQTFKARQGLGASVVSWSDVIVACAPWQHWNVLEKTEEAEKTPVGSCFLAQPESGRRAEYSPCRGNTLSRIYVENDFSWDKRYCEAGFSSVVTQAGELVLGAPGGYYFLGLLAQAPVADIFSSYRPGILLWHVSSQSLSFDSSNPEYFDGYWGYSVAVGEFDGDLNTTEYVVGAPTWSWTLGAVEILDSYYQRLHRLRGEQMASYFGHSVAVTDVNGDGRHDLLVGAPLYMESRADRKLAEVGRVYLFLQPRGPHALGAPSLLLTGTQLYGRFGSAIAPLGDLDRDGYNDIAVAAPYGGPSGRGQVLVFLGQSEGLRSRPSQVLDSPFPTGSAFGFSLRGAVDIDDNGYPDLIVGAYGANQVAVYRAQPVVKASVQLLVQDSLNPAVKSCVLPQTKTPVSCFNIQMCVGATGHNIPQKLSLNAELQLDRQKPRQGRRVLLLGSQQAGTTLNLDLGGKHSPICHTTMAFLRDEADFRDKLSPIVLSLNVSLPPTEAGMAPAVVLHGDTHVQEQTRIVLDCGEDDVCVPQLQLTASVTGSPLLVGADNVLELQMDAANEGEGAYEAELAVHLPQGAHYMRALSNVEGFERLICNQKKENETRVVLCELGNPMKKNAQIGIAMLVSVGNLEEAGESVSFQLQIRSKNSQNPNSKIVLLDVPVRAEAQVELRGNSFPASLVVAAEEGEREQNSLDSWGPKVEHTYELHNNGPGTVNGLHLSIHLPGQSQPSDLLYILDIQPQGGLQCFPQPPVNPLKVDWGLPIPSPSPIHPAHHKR
T1 sequence (P08514 891-1039 partner limits assumed): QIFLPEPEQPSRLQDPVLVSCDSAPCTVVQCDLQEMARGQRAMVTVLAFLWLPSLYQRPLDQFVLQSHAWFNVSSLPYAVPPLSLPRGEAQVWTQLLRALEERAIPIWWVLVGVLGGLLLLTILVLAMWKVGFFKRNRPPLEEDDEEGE
T1 sequence (P05106 27-788): as the sequence (P05106 27-788) above

IC50 (human GPIIbIIIa) [nM]	IC50 (human αvβ3; mean of three replicate determinations, FIG. 2, read-out: IC50, inhibition of the αvβ3-vitronectin interaction) [nM]	IC50 (human αvβ3; [1]) [nM]	Compound
780	28	–	CCCCS(=O)(=O)N[C@@H](Cc1ccc(OCCCONC(=N)N)cc1)C(=O)O [Example 1, (2S)-3-{4-[3-(amidinoaminooxy)propoxy]phenyl}-2-[(butylsulfonyl)amino]propanoic acid trifluoroacetic acid]
–	–	2	Cc1ccc([N+](=O)[O-])cc1S(=O)(=O)N[C@@H](Cc1ccc(OCCCONC(=N)N)cc1)C(=O)O [Example 11, (2S)-3-{4-[3-(Amidinoaminooxy)propoxy]phenyl)}-2-{[(2-methyl-5-nitrophenyl)sulfonyl]amino}propanoic acid trifluoroacetic acid salt]
–	–	1	CC1(C)C2CCC1(CS(=O)(=O)N[C@@H](Cc1ccc(OCCCONC(=N)N)cc1)C(=O)O)C(=O)C2 (stereo partly drawn) [Example 86, (2S)-2-{[(1S)-10-Camphorsulfonyl]amino}-3-{4-[3-(amidinoaminooxy)propoxy]phenyl}propanoic acid trifluoroacetic acid salt]
–	–	6	Cc1nn(C)c(Cl)c1S(=O)(=O)N[C@@H](Cc1ccc(OCCCONC(=N)N)cc1)C(=O)O [Example 77, (2S)-3-{4-[3-(Amidinoaminooxy)propoxy]phenyl}-2-{[(5-chloro-1,3-dimethylpyrazol-4-yl)sulfonyl]amino}propanoic acid trifluoroacetic acid salt]
–	–	2	N=C(N)NOCCCOc1ccc(C[C@H](NS(=O)(=O)c2c(Cl)cccc2Cl)C(=O)O)cc1 [Example 46, (2S)-3-{4-[3-(Amidinoaminooxy)propoxy]phenyl}-2-{[(2,6-dichlorophenyl)sulfonyl]amino}propanoic acid trifluoroacetic acid salt]
